PubChem BioAssay (NCI)
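Results reflect a 48-hour exposure of cells in 96-well plates to compound at five concentrations. Here, GI50 denotes the concentration required for 50% inhibition of growth. TGI is the concentration that stops growth completely.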

Tests used:
Test in all cases: inhibition of tumour cell growth, NCI panel, 48 h
SNB-75 CNS = test system: SNB-75 CNS
HOP-62 NSCLC = test system: HOP-62 NSCLC
UO-31 renal = test system: UO-31 renal
NCI-H522 lung = test system: NCI-H522 lung
SK-MEL-28 melanoma = test system: SK-MEL-28 melanoma
SF-539 CNS = test system: SF-539 CNS
A498 renal = test system: A498 renal
NCI-H226 lung = test system: NCI-H226 lung
HCT-116 colon = test system: HCT-116 colon
MCF7 breast = test system: MCF7 breast
SF-268 CNS = test system: SF-268 CNS
CAKI-1 renal = test system: CAKI-1 renal
HCT-15 colon = test system: HCT-15 colon

## CC(C)C1CC(CO)(CNc2nc(N)nc(Cl)c2/C=N\O)C1 (stereo unspecified)
SNB-75 CNS
  TGI: 43.6 µM
HOP-62 NSCLC
  TGI: > 100 µM
UO-31 renal
  TGI: 36.3 µM
NCI-H522 lung
  TGI: 22.4 µM
SK-MEL-28 melanoma
  TGI: 26.1 µM
SF-539 CNS
  TGI: 49.3 µM
A498 renal
  TGI: 34.6 µM
NCI-H226 lung
  TGI: 51.2 µM
HCT-116 colon
  TGI: 34 µM
MCF7 breast
  TGI: 4.27 µM
SF-268 CNS
  TGI: > 79.5 µM
CAKI-1 renal
  TGI: 33.7 µM
HCT-15 colon
  TGI: 32.7 µM

## CC(O)CC(=O)CO[C@H]1[C@H](O)[C@@H](O)[C@@H](O)[C@@H]2NC(=O)c3c(cc4c(c3O)OCO4)[C@H]21 (stereo partly specified)
SNB-75 CNS
  TGI: 0.404 µM
HOP-62 NSCLC
  TGI: 0.319 µM
UO-31 renal
  TGI: 0.588 µM
NCI-H522 lung
  TGI: 0.0962 µM
SK-MEL-28 melanoma
  TGI: 8.03 µM
SF-539 CNS
  TGI: 0.0712 µM
A498 renal
  TGI: 0.072 µM
NCI-H226 lung
  TGI: 1.49 µM
HCT-116 colon
  TGI: 0.345 µM
MCF7 breast
  TGI: 0.461 µM
SF-268 CNS
  TGI: 0.0626 µM

## CC(=O)c1cc(CC2Cc3cc4c(cc3C2=O)CCC4)cc2c1CCC2 (stereo unspecified)
SNB-75 CNS
  TGI: > 100 µM
HOP-62 NSCLC
  TGI: > 100 µM
UO-31 renal
  TGI: > 100 µM
NCI-H522 lung
  TGI: > 100 µM
SK-MEL-28 melanoma
  TGI: > 100 µM
SF-539 CNS
  TGI: > 100 µM
A498 renal
  TGI: > 100 µM
NCI-H226 lung
  TGI: > 100 µM
HCT-116 colon
  TGI: > 100 µM
MCF7 breast
  TGI: > 100 µM
SF-268 CNS
  TGI: > 100 µM
CAKI-1 renal
  TGI: > 100 µM
HCT-15 colon
  TGI: > 100 µM

## COc1ccc(-c2[nH]c(-c3ccc(OC)cc3)c(-c3ccccn3)c2-c2ccccn2)cc1
SNB-75 CNS
  TGI: > 100 µM
UO-31 renal
  TGI: > 100 µM
SF-539 CNS
  TGI: > 100 µM
A498 renal
  TGI: > 100 µM
NCI-H226 lung
  TGI: > 100 µM
HCT-116 colon
  TGI: > 100 µM
MCF7 breast
  TGI: > 100 µM
SF-268 CNS
  TGI: > 100 µM
CAKI-1 renal
  TGI: > 100 µM
HCT-15 colon
  TGI: > 100 µM

## CC(C)(C)CNCCCNc1ccc(Cl)cc1
HOP-62 NSCLC
  TGI: > 100 µM
UO-31 renal
  TGI: > 100 µM
NCI-H522 lung
  TGI: > 100 µM
SK-MEL-28 melanoma
  TGI: 44.3 µM
SF-539 CNS
  TGI: > 100 µM
A498 renal
  TGI: 51.5 µM
NCI-H226 lung
  TGI: 78.7 µM
HCT-116 colon
  TGI: > 100 µM
MCF7 breast
  TGI: 46 µM
SF-268 CNS
  TGI: > 100 µM
HCT-15 colon
  TGI: > 100 µM

## Cc1occc1C(=S)Nc1ccc(Cl)c(C(=O)OCC(C)C)c1
SNB-75 CNS
  TGI: 29.4 µM
UO-31 renal
  TGI: 33.2 µM
NCI-H522 lung
  TGI: 29.2 µM
SK-MEL-28 melanoma
  TGI: 32.3 µM
SF-539 CNS
  TGI: 43.6 µM
A498 renal
  TGI: 30.4 µM
NCI-H226 lung
  TGI: 30.4 µM
HCT-116 colon
  TGI: 28.8 µM
MCF7 breast
  TGI: 33.3 µM
SF-268 CNS
  TGI: 42.5 µM
CAKI-1 renal
  TGI: 37.8 µM
HCT-15 colon
  TGI: 36.1 µM

## COc1ccc(OC)c(N=Cc2cc(OC)c(OC)c(OC)c2)c1
SNB-75 CNS
  TGI: > 100 µM
HOP-62 NSCLC
  TGI: > 100 µM
UO-31 renal
  TGI: > 100 µM
NCI-H522 lung
  TGI: 57.7 µM
SK-MEL-28 melanoma
  TGI: > 100 µM
SF-539 CNS
  TGI: > 100 µM
A498 renal
  TGI: > 100 µM
NCI-H226 lung
  TGI: > 100 µM
HCT-116 colon
  TGI: > 100 µM
MCF7 breast
  TGI: > 100 µM
SF-268 CNS
  TGI: > 100 µM
CAKI-1 renal
  TGI: > 100 µM
HCT-15 colon
  TGI: > 100 µM

## CN1CN(c2ccccc2)C2(CCN(C3Nc4ccccc4O3)CC2)C1=O (stereo unspecified)
SNB-75 CNS
  TGI: 62.3 µM
HOP-62 NSCLC
  TGI: 31.1 µM
UO-31 renal
  TGI: 69.8 µM
NCI-H522 lung
  TGI: 39.2 µM
SK-MEL-28 melanoma
  TGI: 47.2 µM
SF-539 CNS
  TGI: 28.9 µM
A498 renal
  TGI: 42.1 µM
NCI-H226 lung
  TGI: 50.3 µM
HCT-116 colon
  TGI: 29.8 µM
MCF7 breast
  TGI: 38.6 µM
SF-268 CNS
  TGI: 61 µM
CAKI-1 renal
  TGI: > 100 µM
HCT-15 colon
  TGI: 28.8 µM

## C[C@@H](Oc1ccc(Oc2cnc3ccc(Cl)cc3n2)cc1)C(=O)O
SNB-75 CNS
  TGI: > 100 µM
HOP-62 NSCLC
  GI50: > 85.3 µM
  TGI: > 100 µM
UO-31 renal
  TGI: > 100 µM
NCI-H522 lung
  TGI: > 100 µM
SK-MEL-28 melanoma
  TGI: > 100 µM
SF-539 CNS
  GI50: > 87.9 µM
  TGI: > 100 µM
A498 renal
  TGI: > 100 µM
NCI-H226 lung
  GI50: 67.1 µM
  TGI: > 100 µM
HCT-116 colon
  TGI: > 100 µM
MCF7 breast
  GI50: 18.3 µM
  TGI: > 100 µM
SF-268 CNS
  TGI: > 100 µM
CAKI-1 renal
  TGI: > 100 µM
HCT-15 colon
  TGI: > 100 µM

## COC(=O)CNC(=O)CNC(=O)CSc1nnc(COc2ccc(Cl)cc2)n1-c1ccccc1
SNB-75 CNS
  TGI: 60.2 µM
HOP-62 NSCLC
  TGI: > 100 µM
UO-31 renal
  TGI: 48.6 µM
NCI-H522 lung
  TGI: 31.8 µM
SK-MEL-28 melanoma
  TGI: 56.3 µM
SF-539 CNS
  TGI: > 100 µM
A498 renal
  TGI: > 100 µM
NCI-H226 lung
  TGI: > 100 µM
HCT-116 colon
  TGI: > 100 µM
MCF7 breast
  TGI: > 100 µM
SF-268 CNS
  TGI: 51.6 µM
CAKI-1 renal
  TGI: 31.7 µM
HCT-15 colon
  TGI: > 100 µM

## O=[N+]([O-])c1cnc(N(CCO)CCO)s1
SNB-75 CNS
  TGI: 0.341 µM
HOP-62 NSCLC
  TGI: > 100 µM
UO-31 renal
  TGI: > 100 µM
NCI-H522 lung
  TGI: > 100 µM
SK-MEL-28 melanoma
  TGI: > 100 µM
SF-539 CNS
  TGI: > 100 µM
A498 renal
  TGI: > 100 µM
NCI-H226 lung
  TGI: > 100 µM
HCT-116 colon
  TGI: > 100 µM
MCF7 breast
  TGI: > 100 µM
SF-268 CNS
  TGI: > 100 µM
CAKI-1 renal
  TGI: > 100 µM
HCT-15 colon
  TGI: > 100 µM

## COC(O)C(=O)c1c2c(cc3c1CCC3)CCC2 (stereo unspecified)
SNB-75 CNS
  TGI: > 100 µM
HOP-62 NSCLC
  TGI: > 100 µM
UO-31 renal
  TGI: > 100 µM
NCI-H522 lung
  TGI: > 100 µM
SK-MEL-28 melanoma
  TGI: > 100 µM
SF-539 CNS
  TGI: > 100 µM
A498 renal
  TGI: > 100 µM
NCI-H226 lung
  TGI: > 100 µM
HCT-116 colon
  TGI: > 100 µM
MCF7 breast
  TGI: > 100 µM
SF-268 CNS
  TGI: > 100 µM
CAKI-1 renal
  TGI: > 100 µM
HCT-15 colon
  TGI: > 100 µM

## CCOC(CN(C)C(=O)Nc1ccc(Cl)c(Cl)c1)OCC
SNB-75 CNS
  TGI: > 10 µM
HOP-62 NSCLC
  TGI: > 10 µM
UO-31 renal
  TGI: > 10 µM
NCI-H522 lung
  TGI: > 10 µM
SK-MEL-28 melanoma
  TGI: > 10 µM
SF-539 CNS
  TGI: > 10 µM
A498 renal
  TGI: > 10 µM
NCI-H226 lung
  TGI: > 10 µM
HCT-116 colon
  TGI: > 10 µM
MCF7 breast
  TGI: > 10 µM
SF-268 CNS
  TGI: > 10 µM
CAKI-1 renal
  TGI: > 10 µM
HCT-15 colon
  TGI: > 10 µM

## Clc1ccc(OCc2nnc3sc(SSc4nn5c(COc6ccc(Cl)cc6)nnc5s4)nn23)cc1
SNB-75 CNS
  TGI: > 100 µM
HOP-62 NSCLC
  TGI: > 100 µM
UO-31 renal
  TGI: > 100 µM
NCI-H522 lung
  TGI: > 100 µM
SK-MEL-28 melanoma
  TGI: > 100 µM
SF-539 CNS
  TGI: > 100 µM
A498 renal
  GI50: 28.9 µM
  TGI: 86 µM
NCI-H226 lung
  TGI: > 100 µM
HCT-116 colon
  TGI: > 100 µM
MCF7 breast
  GI50: 45 µM
  TGI: > 100 µM
SF-268 CNS
  TGI: > 100 µM
CAKI-1 renal
  GI50: 77.3 µM
  TGI: > 100 µM
HCT-15 colon
  GI50: 86.2 µM
  TGI: > 100 µM

## CC(=O)Nc1ncc2c(n1)-c1ccccc1OC2c1ccccc1 (stereo unspecified)
SNB-75 CNS
  TGI: 40.5 µM
UO-31 renal
  TGI: > 100 µM
NCI-H522 lung
  TGI: > 100 µM
SF-539 CNS
  TGI: 35.1 µM
A498 renal
  TGI: 51.6 µM
NCI-H226 lung
  TGI: 52.1 µM
HCT-116 colon
  TGI: > 100 µM
MCF7 breast
  TGI: > 100 µM
SF-268 CNS
  TGI: 63.5 µM
CAKI-1 renal
  TGI: 68.3 µM
HCT-15 colon
  TGI: > 100 µM

## CCOc1cc(/C=N/c2nc3cc4sc(/N=C/c5ccc(O)c(OCC)c5)nc4cc3s2)ccc1O
SNB-75 CNS
  TGI: > 100 µM
HOP-62 NSCLC
  TGI: > 100 µM
UO-31 renal
  TGI: > 100 µM
NCI-H522 lung
  TGI: > 100 µM
SK-MEL-28 melanoma
  TGI: 42.7 µM
SF-539 CNS
  TGI: 62.3 µM
A498 renal
  TGI: > 100 µM
NCI-H226 lung
  TGI: > 100 µM
HCT-116 colon
  TGI: > 100 µM
MCF7 breast
  TGI: > 100 µM
SF-268 CNS
  TGI: > 100 µM
CAKI-1 renal
  TGI: > 100 µM
HCT-15 colon
  TGI: > 100 µM
